For assay [1], the target named is Transient receptor potential cation channel subfamily V member 1 (Rattus norvegicus, UniProt O35433). Nature of the assay: Antagonist activity against low pH(5.0-5.5)-activated rat VR1. Format: functional.
The target in assay [2] is Transient receptor potential cation channel subfamily V member 1 (Homo sapiens, UniProt Q8NER1). The assay can be described thus: Antagonist activity against capsaicin-activated human VR1 by FLIPR assay. Format: functional.

Consider 28 compounds from ChEMBL document CHEMBL1149508, “From arylureas to biarylamides to aminoquinazolines: discovery of a novel, potent TRPV1 antagonist” (Bioorg Med Chem Lett, 2006).

The IC50 is the concentration that inhibits the measured activity by half. Read a low IC50 as greater potency in that assay.

Sequence of Transient receptor potential cation channel subfamily V member 1 (Homo sapiens, UniProt Q8NER1) (Q8NER1 whole entry): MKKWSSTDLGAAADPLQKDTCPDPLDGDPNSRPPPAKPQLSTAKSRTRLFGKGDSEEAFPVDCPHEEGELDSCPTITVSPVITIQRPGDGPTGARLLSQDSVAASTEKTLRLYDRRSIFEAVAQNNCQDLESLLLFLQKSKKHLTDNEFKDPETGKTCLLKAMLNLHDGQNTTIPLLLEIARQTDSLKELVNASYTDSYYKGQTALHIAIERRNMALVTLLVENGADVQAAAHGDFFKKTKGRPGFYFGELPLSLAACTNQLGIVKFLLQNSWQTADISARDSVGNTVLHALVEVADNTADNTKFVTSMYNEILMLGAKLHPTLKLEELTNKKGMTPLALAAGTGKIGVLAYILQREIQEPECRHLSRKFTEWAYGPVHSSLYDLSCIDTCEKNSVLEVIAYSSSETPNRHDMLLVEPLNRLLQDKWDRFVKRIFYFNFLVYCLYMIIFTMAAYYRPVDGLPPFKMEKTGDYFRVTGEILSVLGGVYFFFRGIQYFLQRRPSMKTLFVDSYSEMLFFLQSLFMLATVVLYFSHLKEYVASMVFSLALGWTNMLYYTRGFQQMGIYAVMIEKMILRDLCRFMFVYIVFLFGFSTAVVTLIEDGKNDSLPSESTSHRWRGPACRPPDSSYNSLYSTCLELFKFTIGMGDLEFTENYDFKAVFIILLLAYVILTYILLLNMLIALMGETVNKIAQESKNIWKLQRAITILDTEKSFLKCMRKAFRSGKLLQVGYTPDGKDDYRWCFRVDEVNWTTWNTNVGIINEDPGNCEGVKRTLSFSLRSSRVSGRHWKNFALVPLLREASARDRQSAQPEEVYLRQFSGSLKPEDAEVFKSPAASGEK
Sequence of Transient receptor potential cation channel subfamily V member 1 (Rattus norvegicus, UniProt O35433) (O35433 whole entry): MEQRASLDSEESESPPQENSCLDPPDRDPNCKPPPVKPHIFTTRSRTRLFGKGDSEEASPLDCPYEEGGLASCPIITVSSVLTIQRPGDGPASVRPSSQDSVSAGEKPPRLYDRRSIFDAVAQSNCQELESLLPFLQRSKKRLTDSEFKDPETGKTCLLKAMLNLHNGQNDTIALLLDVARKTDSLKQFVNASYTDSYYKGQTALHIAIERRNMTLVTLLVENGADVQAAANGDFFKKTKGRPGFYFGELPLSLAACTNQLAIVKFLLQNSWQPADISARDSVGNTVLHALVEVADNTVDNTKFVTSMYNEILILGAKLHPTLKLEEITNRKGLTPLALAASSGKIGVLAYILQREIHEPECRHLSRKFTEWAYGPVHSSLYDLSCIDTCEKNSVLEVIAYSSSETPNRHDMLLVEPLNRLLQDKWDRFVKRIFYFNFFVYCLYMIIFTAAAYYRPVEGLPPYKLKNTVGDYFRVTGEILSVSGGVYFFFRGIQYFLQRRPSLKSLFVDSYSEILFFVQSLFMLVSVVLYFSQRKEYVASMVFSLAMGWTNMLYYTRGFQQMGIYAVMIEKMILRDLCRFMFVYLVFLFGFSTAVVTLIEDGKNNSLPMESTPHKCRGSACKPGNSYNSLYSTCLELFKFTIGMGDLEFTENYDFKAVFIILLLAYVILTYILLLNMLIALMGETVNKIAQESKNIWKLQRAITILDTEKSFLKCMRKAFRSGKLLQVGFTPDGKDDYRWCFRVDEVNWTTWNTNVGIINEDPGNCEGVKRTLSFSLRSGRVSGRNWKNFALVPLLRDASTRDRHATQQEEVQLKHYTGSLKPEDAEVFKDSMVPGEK

For `Cc1cc(-c2ncccc2C)ccc1C(=O)Nc1ccc(C(F)(F)F)cc1`, the concentration for half-maximal inhibition (IC50) in assay [1] and in assay [2] was over 4 µM in each case.

Consider `Cc1cccnc1-c1ccc(C(=O)Nc2ccc(OC(F)(F)F)cc2)cc1`, for which the IC50 is 0.896 µM in assay [1] and 0.974 µM in assay [2].

For the compound `O=C(Nc1ccccc1)c1ccc(-c2ncccc2C(F)(F)F)cc1`, the IC50 in assay [2] is over 4 µM.

Regarding `Cc1cccnc1-c1ccc(C(=O)Nc2ccc(C(C)(C)C)cc2)cc1`, half-maximal inhibition in assay [1] (IC50) was put at 0.009 µM.

Regarding `O=C(Nc1ccc(C(F)(F)F)cc1)c1ccc(-c2ncccc2C(F)(F)F)cc1F`, the figures for the IC50 in assay [1] and in assay [2] were 0.348 µM and 0.131 µM, respectively.

Consider `CC(C)(C)c1ccc(NC(=O)c2ccc(-c3ncccc3C(=N)N)cc2)cc1`, for which the IC50 in assay [1] and in assay [2] was over 4 µM in each case.

Regarding `Cc1cccnc1-c1ccc(C(=O)Nc2ccc(C(F)(F)F)cc2)cc1`, the IC50 worked out at 0.081 µM in assay [1] and 0.065 µM in assay [2].

As for `CS(=O)(=O)N(c1cc(-c2ncccc2C(F)(F)F)ccc1C(=O)Nc1ccc(C(F)(F)F)cc1)S(C)(=O)=O`, the IC50 in assay [1] and in assay [2] was over 4 µM each time.

For `CC(C)(C)c1ccc(NC(=O)c2ccc(-c3ncccc3CO)cc2)cc1`, the IC50 in assay [1] was 0.088 µM; in assay [2] it was 0.168 µM.

For the compound `CC(C)(C)c1ccc(NC(=O)c2ccc(-c3ncccc3CN3CCCC3)cc2)cc1`, the IC50 amounted to 0.196 µM in assay [1] and 1.53 µM in assay [2].

Regarding `CCCNc1cccnc1-c1ccc(C(=O)Nc2ccc(C(C)(C)C)cc2)cc1`, the IC50 in assay [1] was determined as 0.037 µM; in assay [2], 0.158 µM.

On to `CC(C)(C)c1ccc(NC(=O)c2ccc(-c3ncccc3-c3nnco3)cc2)cc1`, for which the IC50 in assay [1] was determined as 0.059 µM; in assay [2], 0.091 µM.

Regarding `CCCOc1cccnc1-c1ccc(C(=O)Nc2ccc(C(C)(C)C)cc2)cc1`, the figures for the IC50 in assay [1] and in assay [2] were 0.02 µM and 0.062 µM, respectively.

Regarding `COc1ccc(NC(=O)c2ccc(-c3ncccc3C)cc2)cc1`, the IC50 in assay [1] and in assay [2] was over 4 µM throughout.

In the case of `Cc1cccnc1-c1ccc(C(=O)Nc2ccc(C(F)(F)F)cc2)nc1`, the IC50 amounted to 1.58 µM in assay [1] and 1.78 µM in assay [2].

As for `O=C(Nc1ccc(C(F)(F)F)cc1)c1ncc(-c2ncccc2C(F)(F)F)cn1`, the figures for the IC50 in assay [1] and in assay [2] were 0.06 µM and 0.042 µM, respectively.

Take `CC(C)(C)c1ccc(NC(=O)c2ccc(-c3ncccc3[N+](=O)[O-])cc2)cc1`: the IC50 in assay [1] and in assay [2] was 0.005 µM in each case.

In the case of `COc1cc(-c2ncccc2C(F)(F)F)ccc1C(=O)Nc1ccc(C(F)(F)F)cc1`, the IC50 in assay [1] is 1.04 µM; in assay [2] it was over 4 µM.

`CCN(CC)Cc1cccnc1-c1ccc(C(=O)Nc2ccc(C(C)(C)C)cc2)cc1`: the IC50 in assay [1] came to 0.334 µM; in assay [2], 1.41 µM.

On to `Cc1cccnc1-c1ccc(C(=O)Nc2ccc(Cl)cc2)cc1`, for which the IC50 in assay [1] stood at 2.02 µM; in assay [2], 1.5 µM.

For the compound `Cc1cccnc1-c1ccc(C(=O)Nc2ccc(C(F)(F)F)cc2)cn1`, the IC50 stood at 0.583 µM in assay [1] and 0.624 µM in assay [2].

As to `CC(C)(C)c1ccc(NC(=O)c2ccc(-c3ncccc3NO)cc2)cc1`, the IC50 turned out to be 0.005 µM in assay [1] and 0.049 µM in assay [2].

As to `CC(C)(C)c1ccc(NC(=O)c2ccc(-c3ncccc3-c3nnn[nH]3)cc2)cc1`, the IC50 in assay [1] and in assay [2] was over 4 µM in each case.

As to `Nc1cc(-c2ncccc2C(F)(F)F)ccc1C(=O)Nc1ccc(C(F)(F)F)cc1`, the IC50 in assay [1] worked out at 0.103 µM; in assay [2], 0.093 µM.

As to `Cc1nc(-c2ncccc2C(F)(F)F)ccc1C(=O)Nc1ccc(C(F)(F)F)cc1`, the IC50 came out at 0.263 µM in assay [1] and 0.259 µM in assay [2].

As to `Cc1cccnc1-c1ccc(C(=O)Nc2ccc(Br)cc2)cc1`, the IC50 came to 0.366 µM in assay [1] and 0.189 µM in assay [2].

Regarding `Cc1ccc(NC(=O)c2ccc(-c3ncccc3C)cc2)cc1`, the IC50 in assay [1] is over 4 µM; in assay [2], 2.58 µM.

For `O=C(Nc1ccc(C(F)(F)F)cc1)c1ccc(-c2ncccc2Cl)cc1`, the IC50 in assay [2] was 0.058 µM.
